This is an account of results in PubChem BioAssay AID2060330 (Molecular Pharmacology Branch, DTP, NCI, 2025).

The test system of this experiment is LG0703-F948-PDC spheroids with HUVEC/MSC, viability. Nature of the experiment: Anticancer human tumor LG0703-F948-PDC patient-derived lung adenocarcinoma cell line growth inhibition [IpAb]. To be noted: for viability, T/C: stronger effect = lower value. In a few lines:
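Spheroids of 60% malignant cells, 25% HUVEC and 15% MSC were exposed to targeted agents combined with ipatasertib or abemaciclib. Doses started at or near clinical Cmax (10 microM when unknown) and fell in half-log steps.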

Where [1] appears, read: curve of first compound, second compound 0.1 µM.
Setting [2] is: curve of first compound, second compound 0.316 µM.
Setting [3] is: curve of first compound, second compound 1 µM.
Setting [4] is: curve of first compound, second compound 3.16 µM.
Where [5] appears, read: curve of first compound, second compound 10 µM.
Where [6] appears, read: second compound 0.1 µM, first compound 0.0316 µM.
The mark [7] stands for this setting: second compound 0.1 µM, first compound 0.1 µM.
Setting [8] is: second compound 0.316 µM, first compound 0.0316 µM.
Setting [9] is: second compound 0.316 µM, first compound 0.1 µM.
The mark [10] stands for this setting: second compound 1 µM, first compound 0.0316 µM.
The mark [11] stands for this setting: second compound 1 µM, first compound 0.1 µM.
[12] abbreviates: second compound 3.16 µM, first compound 0.0316 µM.
The mark [13] stands for this setting: second compound 3.16 µM, first compound 0.1 µM.
[14] abbreviates: second compound 10 µM, first compound 0.0316 µM.
Setting [15] is: second compound 10 µM, first compound 0.1 µM.
The mark [16] stands for this setting: second compound 0.1 µM, first compound 0.316 µM.
Where [17] appears, read: second compound 0.1 µM, first compound 1 µM.
Setting [18] is: second compound 0.1 µM, first compound 3.16 µM.
The mark [19] stands for this setting: second compound 0.1 µM, first compound 10 µM.
Where [20] appears, read: second compound 0.316 µM, first compound 0.316 µM.
Setting [21] is: second compound 0.316 µM, first compound 1 µM.
Where [22] appears, read: second compound 0.316 µM, first compound 3.16 µM.
The mark [23] stands for this setting: second compound 0.316 µM, first compound 10 µM.
The mark [24] stands for this setting: second compound 1 µM, first compound 0.316 µM.
[25] abbreviates: second compound 1 µM, first compound 1 µM.
Setting [26] is: second compound 1 µM, first compound 3.16 µM.
Where [27] appears, read: second compound 1 µM, first compound 10 µM.

The structures appear in SMILES notation. Values joined by “and” are separate entries in the source; they are usually repeats but may differ in a detail not shown here. Equal values may be shown once.
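Note: spheroids exposed to compounds for seven days before readout.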
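Throughout, for viability, T/C: T/C percent relative to DMSO vehicle wells set as 100% viability.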

Consider `Cn1ncnc1[C@H]1c2n[nH]c(=O)c3cc(F)cc(c23)N[C@@H]1c1ccc(F)cc1` + CC(C)NCC(C(=O)N1CCN(c2ncnc3c2C(C)CC3O)CC1)c1ccc(Cl)cc1, for which the IC50 runs as follows: under setting [1], above 100 nM; under setting [2], above 100 nM; under setting [3], above 100 nM; under setting [4], below 0.316 nM; under setting [5], below 0.316 nM. Also, the viability, T/C by setting is: (second compound 0.1 µM, first compound 0.000316 µM) 91.9%; (second compound 0.1 µM, first compound 0.001 µM) 79.1%; (second compound 0.1 µM, first compound 0.00316 µM) 79.2%; (second compound 0.1 µM, first compound 0.01 µM) 91.9%; under setting [6], 68.6%; under setting [7], 73.4%. Moreover, the viability, T/C is, setting by setting: (second compound 0.316 µM, first compound 0.000316 µM) 73.5%; (second compound 0.316 µM, first compound 0.001 µM) 67.9%; (second compound 0.316 µM, first compound 0.00316 µM) 59.8%; (second compound 0.316 µM, first compound 0.01 µM) 65.7%; under setting [8], 63.6%; under setting [9], 58.3%. The viability, T/C (second compound 1 µM, first compound 0.000316 µM) was 60.1%; the viability, T/C (second compound 1 µM, first compound 0.001 µM) is 51.4%; the viability, T/C (second compound 1 µM, first compound 0.00316 µM) was 51%; the viability, T/C (second compound 1 µM, first compound 0.01 µM) was 53.5%; the viability, T/C under setting [10] is 60.3%; the viability, T/C under setting [11] is 51.9%. Further, the viability, T/C (second compound 3.16 µM, first compound 0.000316 µM) was 47%; the viability, T/C (second compound 3.16 µM, first compound 0.001 µM) was 40.3%; the viability, T/C (second compound 3.16 µM, first compound 0.00316 µM) is 45.9%; the viability, T/C (second compound 3.16 µM, first compound 0.01 µM) was 42.9%; the viability, T/C under setting [12] was 49.5%; the viability, T/C under setting [13] is 46.1%. Further, the viability, T/C was 42.8% (second compound 10 µM, first compound 0.000316 µM); 44.4% (second compound 10 µM, first compound 0.001 µM); 37.7% (second compound 10 µM, first compound 0.00316 µM); 45.9% (second compound 10 µM, first compound 0.01 µM); 38% under setting [14]; 37.2% under setting [15].
On to `C=CCn1c(=O)c2cnc(Nc3ccc(N4CCN(C)CC4)cc3)nc2n1-c1cccc(C(C)(C)O)n1` + CCN1CCN(Cc2ccc(Nc3ncc(F)c(-c4cc(F)c5nc(C)n(C(C)C)c5c4)n3)nc2)CC1, for which the IC50 (curve of first compound, second compound 0.01 µM) worked out at 1160 nM; the IC50 (curve of first compound, second compound 0.0316 µM) came to 1010 nM; the IC50 under setting [1] came to 898 nM; the half-maximal inhibitory concentration (IC50) under setting [2] came to 862 nM; the IC50 under setting [3] amounted to 421 nM. The viability, T/C was 120% (second compound 0.01 µM, first compound 0.0316 µM); 101% (second compound 0.01 µM, first compound 0.1 µM); 86% (second compound 0.01 µM, first compound 0.316 µM); 58.9% (second compound 0.01 µM, first compound 1 µM); 17.3% (second compound 0.01 µM, first compound 3.16 µM); 8.27% (second compound 0.01 µM, first compound 10 µM). Besides, the viability, T/C was 99.6% (second compound 0.0316 µM, first compound 0.0316 µM); 94.1% (second compound 0.0316 µM, first compound 0.1 µM); 78.7% (second compound 0.0316 µM, first compound 0.316 µM); 53.2% (second compound 0.0316 µM, first compound 1 µM); 16.6% (second compound 0.0316 µM, first compound 3.16 µM); 6.85% (second compound 0.0316 µM, first compound 10 µM). The viability, T/C by setting is: under setting [6], 95.8%; under setting [7], 76.5%; under setting [16], 71.2%; under setting [17], 53.5%; under setting [18], 16%; under setting [19], 4.26%. In addition, the viability, T/C runs as follows: under setting [8], 85.3%; under setting [9], 79.6%; under setting [20], 69.4%; under setting [21], 47.7%; under setting [22], 21.4%; under setting [23], 7.46%. The viability, T/C by setting is: under setting [10], 88.4%; under setting [11], 69.8%; under setting [24], 51.8%; under setting [25], 40.1%; under setting [26], 21.8%; under setting [27], 3.5%.
On to `C=CC(=O)N1CCN(c2nc(=O)n(-c3c(C)ccnc3C(C)C)c3nc(-c4c(O)cccc4F)c(F)cc23)C(C)C1` (stereo unspecified) + CC(C)NCC(C(=O)N1CCN(c2ncnc3c2C(C)CC3O)CC1)c1ccc(Cl)cc1, for which the IC50 is above 10000 nM under setting [1]; above 10000 nM under setting [2]; 3340 nM under setting [3]; below 31.6 nM under setting [4]; below 31.6 nM under setting [5]. Also, the viability, T/C is, setting by setting: under setting [6], 87.5%; under setting [7], 86.1%; under setting [16], 92.7%; under setting [17], 91.1%; under setting [18], 90.6%; under setting [19], 54.3%. Moreover, the viability, T/C by setting is: under setting [8], 64.5%; under setting [9], 67.1%; under setting [20], 62.6%; under setting [21], 71.6%; under setting [22], 73.5%; under setting [23], 46.4%. Further, the viability, T/C by setting is: under setting [10], 54.9%; under setting [11], 56.5%; under setting [24], 58%; under setting [25], 54.4%; under setting [26], 50.8%; under setting [27], 34.5%. In addition, the viability, T/C under setting [12] was 44.5%; the viability, T/C under setting [13] was 52.9%; the viability, T/C (second compound 3.16 µM, first compound 0.316 µM) was 48.5%; the viability, T/C (second compound 3.16 µM, first compound 1 µM) was 47%; the viability, T/C (second compound 3.16 µM, first compound 3.16 µM) is 45.6%; the viability, T/C (second compound 3.16 µM, first compound 10 µM) was 30.7%. Moreover, the viability, T/C was 40% under setting [14]; 39% under setting [15]; 40.9% (second compound 10 µM, first compound 0.316 µM); 42.7% (second compound 10 µM, first compound 1 µM); 38.1% (second compound 10 µM, first compound 3.16 µM); 22.5% (second compound 10 µM, first compound 10 µM).
Consider `C=CCn1c(=O)c2cnc(Nc3ccc(N4CCN(C)CC4)cc3)nc2n1-c1cccc(C(C)(C)O)n1`, for which the viability, T/C was 108% and 109% (compound 0.0316 µM); 107% and 101% (compound 0.1 µM); 96.2% and 81.3% (compound 0.316 µM); 58% and 55.1% (compound 1 µM); 19.6% and 15.7% (compound 3.16 µM); 6.89% and 4.96% (compound 10 µM). Moreover, the IC50 (curve of compound) was 1280 nM and 1040 nM.
On to `C=CC(=O)N1CCN(c2nc(=O)n(-c3c(C)ccnc3C(C)C)c3nc(-c4c(O)cccc4F)c(F)cc23)C(C)C1` (stereo unspecified), for which the viability, T/C is 110% and 106% (compound 0.0316 µM); 108% and 103% (compound 0.1 µM); 119% (compound 0.316 µM); 113% and 129% (compound 1 µM); 108% and 119% (compound 3.16 µM); 65.2% and 83% (compound 10 µM). Further, the IC50 (curve of compound) was above 10000 nM.
In the case of `Cn1nccc1Nc1nccc(-c2ccn(C(CO)c3ccc(Cl)c(F)c3)c(=O)c2)n1` (stereo unspecified), the viability, T/C reads like this: (compound 0.0316 µM) 93.2% and 90.2%; (compound 0.1 µM) 90.3% and 80.3%; (compound 0.316 µM) 71.5% and 79%; (compound 1 µM) 77.8% and 60.3%; (compound 3.16 µM) 85.2% and 81%; (compound 10 µM) 52.8% and 67.5%. Further, the 50% inhibitory concentration (IC50) (curve of compound) was above 10000 nM.
